According to patent publication US11952364B2, “TRK inhibitors useful as anticancer drugs” (TYLIGAND BIOSCIENCE (SHANGHAI) LIMITED, priority 2018, dated 2024):

How the values were obtained:
Assay in all cases: KINOMEscan competition binding assay
[1] = target: AXL (Homo sapiens (Human), UniProt P30530)
Protocol: (§1) The experiment was performed according to the standard kinase activity determination protocol by Eurofins DiscoverX Corporation (11180 Roselle St. Suite D, San Diego, CA, USA, www.discoverX.com). Specifically, the experiment was conducted using the KINOMEscan™ screening platform, which adopts an active site-directed competition binding assay to quantitatively measure the interaction between test compounds and more than hundreds of human kinases and disease-related mutants. The working principle of the screening platform and kinase assay methods are well known in the art, for example, see www.discoverX.com.

[2] = target: BLK (Homo sapiens (Human), UniProt P51451)
Protocol: as §1

[3] = target: CDK11 (Homo sapiens (Human), UniProt Q9BWU1)
Protocol: as §1

[4] = target: CDK7 (Homo sapiens (Human), UniProt P50613)
Sequence of CDK7 (P50613 whole entry): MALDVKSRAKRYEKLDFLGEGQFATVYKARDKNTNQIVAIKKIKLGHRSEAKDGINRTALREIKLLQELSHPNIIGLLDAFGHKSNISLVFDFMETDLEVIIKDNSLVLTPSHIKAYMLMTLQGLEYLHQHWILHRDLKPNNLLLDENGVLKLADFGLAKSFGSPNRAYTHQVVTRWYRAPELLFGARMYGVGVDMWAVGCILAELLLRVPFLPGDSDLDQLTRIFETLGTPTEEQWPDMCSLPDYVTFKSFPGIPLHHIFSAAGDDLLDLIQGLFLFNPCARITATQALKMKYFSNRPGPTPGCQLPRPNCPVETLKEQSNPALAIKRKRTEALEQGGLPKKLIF
Protocol: as §1

[5] = target: CSF1R (Homo sapiens (Human), UniProt P07333)
Protocol: as §1

[6] = target: EPHA8 (Homo sapiens (Human), UniProt P29322)
Protocol: as §1

[7] = target: EPHB6 (Homo sapiens (Human), UniProt O15197)
Protocol: as §1

[8] = target: FLT3 (Homo sapiens (Human), UniProt P36888)
Protocol: as §1

[9] = target: FLT3(D835V) (Homo sapiens (Human), UniProt P36888, D835V)
Protocol: as §1

[10] = target: FLT3(K663Q) (Homo sapiens (Human), UniProt P36888, K663Q)
Protocol: as §1

[11] = target: FLT3(N841I) (Homo sapiens (Human), UniProt P36888, N841I)
Protocol: as §1

[12] = target: FLT4 (Homo sapiens (Human), UniProt P35916)
Protocol: as §1

[13] = target: HIPK4 (Homo sapiens (Human), UniProt Q8NE63)
Protocol: as §1

[14] = target: IKK-alpha (Homo sapiens (Human), UniProt O15111)
Protocol: as §1

[15] = target: IKK-beta (Homo sapiens (Human), UniProt O14920)
Protocol: as §1

[16] = target: KIT (Homo sapiens (Human), UniProt P10721)
Sequence of KIT (P10721 26-976): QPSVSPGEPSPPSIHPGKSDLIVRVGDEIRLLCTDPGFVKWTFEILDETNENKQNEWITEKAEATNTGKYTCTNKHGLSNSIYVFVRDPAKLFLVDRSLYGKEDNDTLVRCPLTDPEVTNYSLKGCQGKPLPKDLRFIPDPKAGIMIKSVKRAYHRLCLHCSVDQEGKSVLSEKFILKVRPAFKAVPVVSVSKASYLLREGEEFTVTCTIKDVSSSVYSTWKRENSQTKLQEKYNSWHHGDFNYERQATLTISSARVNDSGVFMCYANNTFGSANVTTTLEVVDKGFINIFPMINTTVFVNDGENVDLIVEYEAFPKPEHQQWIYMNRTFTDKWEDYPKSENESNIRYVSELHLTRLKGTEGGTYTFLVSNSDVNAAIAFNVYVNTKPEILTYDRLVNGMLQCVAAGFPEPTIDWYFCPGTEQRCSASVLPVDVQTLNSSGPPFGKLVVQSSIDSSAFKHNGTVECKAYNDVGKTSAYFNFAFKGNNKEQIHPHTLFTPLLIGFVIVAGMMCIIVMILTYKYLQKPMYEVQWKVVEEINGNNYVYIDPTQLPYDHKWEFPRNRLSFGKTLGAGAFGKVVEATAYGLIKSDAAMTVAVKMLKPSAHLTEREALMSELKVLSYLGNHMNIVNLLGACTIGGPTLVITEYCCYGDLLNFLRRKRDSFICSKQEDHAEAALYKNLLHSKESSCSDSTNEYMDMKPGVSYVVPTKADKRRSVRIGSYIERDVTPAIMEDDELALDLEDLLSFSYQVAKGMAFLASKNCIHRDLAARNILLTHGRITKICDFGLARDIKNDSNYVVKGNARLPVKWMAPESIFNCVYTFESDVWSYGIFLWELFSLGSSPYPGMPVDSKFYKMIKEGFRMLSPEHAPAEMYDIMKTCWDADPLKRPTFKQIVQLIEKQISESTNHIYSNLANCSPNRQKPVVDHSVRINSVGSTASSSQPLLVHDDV
Protocol: as §1

[17] = target: KIT(L576P) (Homo sapiens (Human), UniProt P10721, L576P)
Sequence of KIT(L576P) (P10721 26-976 L576P): as the sequence (P10721 26-976) above, with L551P counted along it
Protocol: as §1

[18] = target: KIT(V559D, T670I) (Homo sapiens (Human), UniProt P10721, T670I/V559D)
Sequence of KIT(V559D, T670I) (P10721 26-976 V559D/T670I): as the sequence (P10721 26-976) above, with V534D, T645I counted along it
Protocol: as §1

[19] = target: LCK (Homo sapiens (Human), UniProt P06239)
Protocol: as §1

[20] = target: LOK (Homo sapiens (Human), UniProt O94804)
Protocol: as §1

[21] = target: MERTK (Homo sapiens (Human), UniProt Q12866)
Protocol: as §1

[22] = target: MET (Homo sapiens (Human), UniProt P08581)
Protocol: as §1

[23] = target: MET(M1250T) (Homo sapiens (Human), UniProt P08581, M1250T)
Protocol: as §1

[24] = target: MET(Y1235D) (Homo sapiens (Human), UniProt P08581, Y1235D)
Sequence of MET(Y1235D) (P08581 25-1390 Y1235D): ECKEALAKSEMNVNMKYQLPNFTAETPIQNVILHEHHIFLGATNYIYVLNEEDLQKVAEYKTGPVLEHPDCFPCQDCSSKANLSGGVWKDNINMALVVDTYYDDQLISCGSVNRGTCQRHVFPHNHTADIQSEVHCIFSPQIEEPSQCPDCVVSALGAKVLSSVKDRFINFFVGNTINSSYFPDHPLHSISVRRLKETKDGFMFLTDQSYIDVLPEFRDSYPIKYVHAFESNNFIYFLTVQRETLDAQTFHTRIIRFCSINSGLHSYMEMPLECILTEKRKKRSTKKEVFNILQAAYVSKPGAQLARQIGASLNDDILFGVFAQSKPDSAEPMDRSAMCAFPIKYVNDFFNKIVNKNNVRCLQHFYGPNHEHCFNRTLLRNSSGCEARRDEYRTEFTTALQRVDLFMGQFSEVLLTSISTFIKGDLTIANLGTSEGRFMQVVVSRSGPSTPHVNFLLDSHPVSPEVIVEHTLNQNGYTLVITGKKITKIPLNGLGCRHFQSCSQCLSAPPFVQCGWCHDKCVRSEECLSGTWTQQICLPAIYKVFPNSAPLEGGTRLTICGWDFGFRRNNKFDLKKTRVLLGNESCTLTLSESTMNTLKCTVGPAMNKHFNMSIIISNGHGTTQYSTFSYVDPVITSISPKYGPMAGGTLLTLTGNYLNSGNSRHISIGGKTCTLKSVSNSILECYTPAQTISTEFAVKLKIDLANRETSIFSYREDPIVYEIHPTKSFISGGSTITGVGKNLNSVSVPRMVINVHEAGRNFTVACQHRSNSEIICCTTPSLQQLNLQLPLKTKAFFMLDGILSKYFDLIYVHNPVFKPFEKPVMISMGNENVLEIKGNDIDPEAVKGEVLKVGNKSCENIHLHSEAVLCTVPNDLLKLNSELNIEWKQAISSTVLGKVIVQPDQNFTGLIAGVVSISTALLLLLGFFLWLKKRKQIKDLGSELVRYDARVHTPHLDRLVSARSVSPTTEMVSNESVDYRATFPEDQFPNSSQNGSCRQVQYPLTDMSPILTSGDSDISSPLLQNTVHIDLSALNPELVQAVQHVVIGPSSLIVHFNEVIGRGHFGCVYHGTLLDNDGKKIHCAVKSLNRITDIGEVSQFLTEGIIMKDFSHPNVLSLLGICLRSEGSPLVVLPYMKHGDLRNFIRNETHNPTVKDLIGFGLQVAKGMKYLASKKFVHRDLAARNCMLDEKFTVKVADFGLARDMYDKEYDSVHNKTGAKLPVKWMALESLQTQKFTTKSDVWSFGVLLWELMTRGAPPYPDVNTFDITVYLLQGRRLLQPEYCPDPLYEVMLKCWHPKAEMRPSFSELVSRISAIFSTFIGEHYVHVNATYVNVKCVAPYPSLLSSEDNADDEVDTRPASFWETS
Protocol: as §1

[25] = target: MKNK1 (Homo sapiens (Human), UniProt Q9BUB5)
Protocol: as §1

[26] = target: MKNK2 (Homo sapiens (Human), UniProt Q9HBH9)
Protocol: as §1

[27] = target: MST1R (Homo sapiens (Human), UniProt Q04912)
Protocol: as §1

[28] = target: MUSK (Homo sapiens (Human), UniProt O15146)
Protocol: as §1

[29] = target: MYO3B (Homo sapiens (Human), UniProt Q8WXR4)
Protocol: as §1

[30] = target: NEK9 (Homo sapiens (Human), UniProt Q8TD19)
Sequence of NEK9 (Q8TD19 whole entry): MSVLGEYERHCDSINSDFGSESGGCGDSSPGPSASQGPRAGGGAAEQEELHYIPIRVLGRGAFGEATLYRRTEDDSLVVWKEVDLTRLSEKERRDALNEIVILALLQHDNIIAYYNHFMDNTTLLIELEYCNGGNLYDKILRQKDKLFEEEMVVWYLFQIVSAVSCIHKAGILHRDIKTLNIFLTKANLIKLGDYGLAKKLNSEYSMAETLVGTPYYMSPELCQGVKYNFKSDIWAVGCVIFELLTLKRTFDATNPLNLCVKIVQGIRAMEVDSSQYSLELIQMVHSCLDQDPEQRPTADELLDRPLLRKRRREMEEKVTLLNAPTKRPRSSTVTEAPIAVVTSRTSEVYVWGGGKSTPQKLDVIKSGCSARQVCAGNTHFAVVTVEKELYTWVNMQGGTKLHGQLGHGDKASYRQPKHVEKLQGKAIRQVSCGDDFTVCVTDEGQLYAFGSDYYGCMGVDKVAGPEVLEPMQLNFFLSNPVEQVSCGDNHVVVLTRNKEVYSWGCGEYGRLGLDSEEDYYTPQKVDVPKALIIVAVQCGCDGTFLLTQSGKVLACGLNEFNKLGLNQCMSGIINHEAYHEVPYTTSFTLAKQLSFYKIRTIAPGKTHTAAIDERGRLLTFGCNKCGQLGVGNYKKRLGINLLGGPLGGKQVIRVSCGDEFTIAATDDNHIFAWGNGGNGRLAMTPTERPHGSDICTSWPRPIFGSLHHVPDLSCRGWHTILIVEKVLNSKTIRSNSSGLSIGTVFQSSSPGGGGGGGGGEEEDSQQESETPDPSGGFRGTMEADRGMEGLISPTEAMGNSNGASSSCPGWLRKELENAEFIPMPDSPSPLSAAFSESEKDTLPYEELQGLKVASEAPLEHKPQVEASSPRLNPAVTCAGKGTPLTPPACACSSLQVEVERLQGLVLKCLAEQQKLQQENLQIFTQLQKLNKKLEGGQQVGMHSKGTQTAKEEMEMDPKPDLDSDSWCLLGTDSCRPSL
Protocol: as §1

[31] = target: PDGFRB (Homo sapiens (Human), UniProt P09619)
Protocol: as §1

[32] = target: RAF1 (Homo sapiens (Human), UniProt P04049)
Protocol: as §1

[33] = target: RET (Homo sapiens (Human), UniProt P07949)
Sequence of RET (P07949 29-1114): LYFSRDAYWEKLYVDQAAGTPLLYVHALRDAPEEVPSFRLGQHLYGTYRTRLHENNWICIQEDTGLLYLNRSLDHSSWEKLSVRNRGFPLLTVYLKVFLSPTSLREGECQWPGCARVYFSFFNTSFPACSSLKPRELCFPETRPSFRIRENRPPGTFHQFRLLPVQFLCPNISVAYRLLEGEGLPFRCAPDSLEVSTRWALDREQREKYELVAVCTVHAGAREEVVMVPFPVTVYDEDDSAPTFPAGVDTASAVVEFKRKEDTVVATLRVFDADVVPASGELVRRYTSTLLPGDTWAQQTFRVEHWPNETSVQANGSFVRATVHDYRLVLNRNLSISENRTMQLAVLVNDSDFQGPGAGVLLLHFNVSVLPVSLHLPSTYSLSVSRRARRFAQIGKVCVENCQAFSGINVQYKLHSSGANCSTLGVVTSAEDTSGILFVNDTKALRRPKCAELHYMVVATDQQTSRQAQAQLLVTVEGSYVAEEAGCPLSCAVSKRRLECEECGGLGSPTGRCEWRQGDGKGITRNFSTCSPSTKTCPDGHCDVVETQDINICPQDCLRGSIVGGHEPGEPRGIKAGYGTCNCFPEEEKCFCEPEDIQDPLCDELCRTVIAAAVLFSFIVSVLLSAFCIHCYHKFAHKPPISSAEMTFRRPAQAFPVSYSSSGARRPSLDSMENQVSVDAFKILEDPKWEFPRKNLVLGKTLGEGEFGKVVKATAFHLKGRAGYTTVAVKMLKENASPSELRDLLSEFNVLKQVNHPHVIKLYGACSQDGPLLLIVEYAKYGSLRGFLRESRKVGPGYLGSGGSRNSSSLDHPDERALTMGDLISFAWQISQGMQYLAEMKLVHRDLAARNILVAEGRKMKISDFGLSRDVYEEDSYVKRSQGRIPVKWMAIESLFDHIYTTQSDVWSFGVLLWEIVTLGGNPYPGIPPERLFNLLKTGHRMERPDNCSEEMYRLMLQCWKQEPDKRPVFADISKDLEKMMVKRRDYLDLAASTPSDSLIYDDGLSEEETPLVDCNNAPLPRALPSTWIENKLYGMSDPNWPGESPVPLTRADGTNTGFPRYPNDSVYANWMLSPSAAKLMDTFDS
Protocol: as §1

[34] = target: RET(M918T) (Homo sapiens (Human), UniProt P07949, M918T)
Sequence of RET(M918T) (P07949 29-1114 M918T): as the sequence (P07949 29-1114) above, with M890T counted along it
Protocol: as §1

[35] = target: TIE1 (Homo sapiens (Human), UniProt P35590)
Protocol: as §1

[36] = target: TIE2 (Homo sapiens (Human), UniProt Q02763)
Protocol: as §1

[37] = target: TRKA (Homo sapiens (Human), UniProt P04629)
Protocol: as §1

[38] = target: TRKB (Homo sapiens (Human), UniProt Q16620)
Protocol: as §1

[39] = target: TRKC (Homo sapiens (Human), UniProt Q16288)
Protocol: as §1

Compound `COc1ccc(C(=O)Nc2ccc(Oc3cc4cnn(C)c4cc3-c3cn[nH]c3)c(F)c2)c(=O)n1-c1ccc(F)cc1` [Example 12, N-(3-fluoro-4-(1-methyl-6-(1H-pyrazol-4-yl)-1H-indazol-5-yloxy)phenyl)-1-(4-fluorophenyl)-6-methoxy-2-oxo-1,2-dihydropyridine-3-carboxamide] has an inhibition at 2 µM [1] of 100%, an inhibition at 2 µM [2] of 95% and an inhibition at 2 µM [3] of 100%. It also gave an inhibition at 2 µM [4] of 96%, an inhibition at 2 µM [5] of 100% and an inhibition at 2 µM [6] of 96%. It also gave an inhibition at 2 µM [7] of 95%, an inhibition at 2 µM [8] of 99% and an inhibition at 2 µM [9] of 93%. The inhibition at 2 µM [10] was 93%, the inhibition at 2 µM [11] was 100% and the inhibition at 2 µM [12] was 92%. The inhibition at 2 µM [13] was 97%, the inhibition at 2 µM [14] was 97% and the inhibition at 2 µM [15] was 97%. For the same compound, the inhibition at 2 µM [16] was 100%, the inhibition at 2 µM [17] was 100% and the inhibition at 2 µM [18] was 99%. For the same compound, the inhibition at 2 µM [19] was 97%, the inhibition at 2 µM [20] was 100% and the inhibition at 2 µM [21] was 97%. For the same compound, the inhibition at 2 µM [22] was 93%, the inhibition at 2 µM [23] was 99% and the inhibition at 2 µM [24] was 99%. For the same compound, the inhibition at 2 µM [25] was 95%, the inhibition at 2 µM [26] was 100% and the inhibition at 2 µM [27] was 98%. The inhibition at 2 µM [28] was 98%, the inhibition at 2 µM [29] was 100% and the inhibition at 2 µM [30] was 95%. It also gave an inhibition at 2 µM [31] of 98%, an inhibition at 2 µM [32] of 92% and an inhibition at 2 µM [33] of 97%. For the same compound, the inhibition at 2 µM [34] was 95%, the inhibition at 2 µM [35] was 99% and the inhibition at 2 µM [36] was 99%. The inhibition at 2 µM [37] was 100%, the inhibition at 2 µM [38] was 94% and the inhibition at 2 µM [39] was 97%.
